Tests used:
5-HT3A receptors = target: T1, 5-HT3A receptors (Homo sapiens, UniProt P46098); format: cell-based
T1 construct: expressed in transfected cells; host or cells: Xenopus oocytes injected with cRNA (pGEMHE)
T1 sequence (P46098 24-478): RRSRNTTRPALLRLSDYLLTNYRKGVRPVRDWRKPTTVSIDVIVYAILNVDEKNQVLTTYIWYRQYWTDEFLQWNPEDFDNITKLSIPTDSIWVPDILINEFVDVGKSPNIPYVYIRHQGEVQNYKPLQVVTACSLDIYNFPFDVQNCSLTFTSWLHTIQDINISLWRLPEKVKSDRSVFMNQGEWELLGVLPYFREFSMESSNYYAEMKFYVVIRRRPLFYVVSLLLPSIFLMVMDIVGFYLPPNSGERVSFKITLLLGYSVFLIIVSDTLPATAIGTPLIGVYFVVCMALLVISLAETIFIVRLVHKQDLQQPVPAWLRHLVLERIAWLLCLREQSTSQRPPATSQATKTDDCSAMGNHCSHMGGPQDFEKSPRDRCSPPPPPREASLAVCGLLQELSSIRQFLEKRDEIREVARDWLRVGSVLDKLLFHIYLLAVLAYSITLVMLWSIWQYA

5-HT3 receptor [1] = conditions: cited from earlier work
5-HT3 receptor [2] = conditions: cited from earlier work; remark: listed apart in the source
α7 nACh receptors = conditions: cited from earlier work
[3] = target: nicotinic acetylcholine receptors; conditions: read-out: IC50, block of nicotinic acetylcholine receptors; cited from earlier work
5-HT3 receptors = conditions: cited from earlier work

Compound: NCCc1c[nH]c2ccc(O)cc12 [5-HT]
- Hill slope of agonist concentration-response curve (5-HT3A receptors): 2.06 ± 0.14
- desensitisation time constant τ of inward current (5-HT3A receptors): 42 ± 5 s

Compound: CN1[C@@H]2C[C@@H](OC(=O)c3c[nH]c4ccccc34)C[C@H]1[C@@H]1O[C@@H]12 [SDZ-ICT 322]
- pA2 (5-HT3 receptor [1]): 10.6
- pKd (5-HT3 receptor [2]): 9.2

Compound: CN1[C@@H]2C[C@@H](OC(=O)[C@H](CO)c3ccccc3)C[C@H]1[C@@H]1O[C@@H]12 [scopolamine]
- expression of α7 nACh receptors (α7 nACh receptors): increases the expression
- IC50 [3]: 928 µM

Compound: CN1C2CCC1CC(OC(=O)c1ccccc1)C2 (stereo not shown) [tropane benzoate]
- affinity at 5-HT3 receptors (5-HT3 receptors): 63 nM
